# According to PMC9850771 (RSC Advances, 2023):
# Legend:
# Type in all cases: cell-based
# A375 = assay: MTT cytotoxicity assay, melanoma cell line A375; conditions: Homo sapiens, A-375, 24 h, read-out: IC50 A375
# MCF7 = assay: MTT cytotoxicity assay, breast cancer cell line MCF7; conditions: Homo sapiens; for IC50: MCF7, 24 h, read-out: IC50 MCF7
# MDA-MB-468 = assay: MTT cytotoxicity assay, breast cancer cell line MDA-MB-468; conditions: Homo sapiens, MDA-MB-468, 24 h, read-out: IC50 MDA-MB-468
SMILES,IC50 (A375) [µM],IC50 (MCF7) [µM],IC50 (MDA-MB-468) [µM],"viability at 300 µM (MCF7; MCF7, read-out: viability value, MCF-7) [%]"
"Cn1c(=O)c2c(nc(OCc3cn(CCCc4ccccc4)nn3)n2C)n(C)c1=O [Compound 22a, 1,3,7-Trimethyl-8-((1-(3-phenylpropyl)-1H-1,2,3-triazol-4-yl)methoxy)-1H-purine-2,6(3H,7H)-dione]",179 ± 1.2,268 ± 0.2,256 ± 1.4,–
"Cn1c(=O)c2c(nc(OCc3cn(CCc4ccccc4)nn3)n2C)n(C)c1=O [Compound 22b, 1,3,7-Trimethyl-8-((1-phenethyl-1H-1,2,3-triazol-4-yl)methoxy)-1H-purine-2,6(3H,7H)-dione]",> 300,> 300,> 300,–
"Cn1c(=O)c2c(nc(OCc3cn(Cc4ccccc4)nn3)n2C)n(C)c1=O [Compound 22c, 8-((1-Benzyl-1H-1,2,3-triazol-4-yl)methoxy)-1,3,7-trimethyl-1H-purine-2,6(3H,7H)-dione]",< 12.5,> 300,> 300,–
"Cc1ccc(Cn2cc(COc3nc4c(c(=O)n(C)c(=O)n4C)n3C)nn2)cc1 [Compound 22d, 1,3,7-Trimethyl-8-((1-(4-methylbenzyl)-1H-1,2,3-triazol-4-yl)methoxy)-3,7-dihydro-1H-purine-2,6-dione]",194 ± 1.6,> 300,> 300,–
"Cn1c(=O)c2c(nc(OCc3cn(C(c4ccccc4)c4ccccc4)nn3)n2C)n(C)c1=O [Compound 22e, 8-((1-Benzhydryl-1H-1,2,3-triazol-4-yl)methoxy)-1,3,7-trimethyl-1H-purine-2,6(3H,7H)-dione]",286 ± 0.2,284 ± 0.2,> 300,–
"CCCCCn1cc(COc2nc3c(c(=O)n(C)c(=O)n3C)n2C)nn1 [Compound 22f, 1,3,7-Trimethyl-8-((1-pentyl-1H-1,2,3-triazol-4-yl)methoxy)-1H-purine-2,6(3H,7H)-dione]",160 ± 1.5,136 ± 0.2,126 ± 0.6,17 ± 3
"CCCCCCn1cc(COc2nc3c(c(=O)n(C)c(=O)n3C)n2C)nn1 [Compound 22g, 8-((1-Hexyl-1H-1,2,3-triazol-4-yl)methoxy)-1,3,7-trimethyl-1H-purine-2,6(3H,7H)-dione]",> 300,> 300,> 300,–
"CCCCCCCn1cc(COc2nc3c(c(=O)n(C)c(=O)n3C)n2C)nn1 [Compound 22h, 8-((1-Heptyl-1H-1,2,3-triazol-4-yl)methoxy)-1,3,7-trimethyl-1H-purine-2,6(3H,7H)-dione]",> 300,> 300,> 300,–
"CCCCCCCCn1cc(COc2nc3c(c(=O)n(C)c(=O)n3C)n2C)nn1 [Compound 22i, 1,3,7-Trimethyl-8-((1-octyl-1H-1,2,3-triazol-4-yl)methoxy)-1H-purine-2,6(3H,7H)-dione]",146 ± 1.5,165 ± 1.8,175 ± 1.4,–
"CCCCCCCCCCn1cc(COc2nc3c(c(=O)n(C)c(=O)n3C)n2C)nn1 [Compound 22j, 8-((1-Decyl-1H-1,2,3-triazol-4-yl)methoxy)-1,3,7-trimethyl-1H-purine-2,6(3H,7H)-dione]",> 300,> 300,> 300,–
"CN(Cc1cnc2nc(N)nc(N)c2n1)c1ccc(C(=O)N[C@@H](CCC(=O)O)C(=O)O)cc1 [MTX, Methotrexate, reference compound]",32 ± 2.2,30 ± 2.9,37 ± 1.9,–
